# “Also recorded” adds a separate entry of the source.
# Assays:
# Format in all cases: cell-based
# [1] = test system: DM2 patient-derived fibroblasts; assay: Cell viability by CellTiter-Glo
# Experimental: (§1) Cell lines and cell culture: Compounds were tested in two cell lines: (i) DM2 patient-derived fibroblasts (generous gift from University of Florida, Center for NeuroGenetics) and (ii) fibroblasts from a healthy donor (wild-type; WT GM07492; Coriell Institute). Cells were maintained at 37° ° C. with 5% CO2. DM2 fibroblasts were cultured in DMEM/high glucose (HyClone) supplemented with 20% FBS (Sigma) and 1% Antibiotic-Antimycotic solution (Corning). Wild-type fibroblasts were cultured in MEM (Corning) supplemented with 10% FBS, 1% Glutagro (Corning), and 1% Antibiotic-Antimycotic solution.
# Evaluation of cell viability: Compound toxicity in DM2 fibroblasts was evaluated using a CellTiter-Glo Kit (Promega) as described in the manufacturer's protocol. Briefly, after 48 h treatment in 96-wells plates, 100 μL of the CellTiter-Glo reagent was added to each well. The plate was then incubated at room temperature for 10 min, and luminescence was measured using BioTek FLX-800 luminescence plate reader (n=6 replicates; 1 independent experiment).
# [2] = test system: IR exon 11 alternative splicing in DM2 patient-derived fibroblasts; assay: Rescue of IR exon 11 splicing via RT-PCR in DM2 fibroblasts
# Experimental: as §1
# (§2) Evaluation of pre-mRNA splicing via RT-PCR: Pre-mRNA splicing was analyzed as previously described.^10 Briefly, cells were grown in 6-well plates and treated with the desired compound in growth medium at ˜40% confluency. After 48 h, the cells were lysed, and total RNA was harvested using a Zymo Quick RNA Miniprep Kit. Approximately 1 μg of total RNA was reverse transcribed using a qScript cDNA synthesis kit (20 μL of total reaction volume, Quanta BioSciences); 2 μL of the RT reaction was used for PCR using GoTaq DNA polymerase (Promega). RT-PCR products were observed after 35 cycles of 95° C. for 30 s, 58° C. for 30s, 72 °C for 1 min, and a final extension at 72° C. for 5 min. Products were separated on a 2% agarose gel (110 V for 1 h in 13TBE buffer), visualized by staining with ethidium bromide, and imaged using a Typhoon 9410 variable mode imager. Gels were quantified using ImageJ. Percent rescue was calculated by dividing the difference between treated and untreated DM2 samples by the difference between untreated DM2 and WT samples (Equation 2).
# [3] = test system: r(CCUG)exp-MBNL1 nuclear foci in DM2 patient-derived fibroblasts; assay: Nuclear foci by RNA FISH and MBNL1 immunofluorescence; parameters: dose or concentration left out as unconfirmed
# Experimental: as §1
# Evaluation of nuclear foci via RNA fluorescence in situ hybridization (FISH): RNA FISH was used to determine the small molecules' effects on the number of nuclear foci as previously described.^10 The number of foci were counted in 40 nuclei/replicate (120 total nuclei counted); n=3 replicates; 1 independent experiment.
# [4] = test system: MAP4K4 exon 22a splicing (NOVA-dependent) in DM2 fibroblasts; assay: MAP4K4 exon 22a splicing via RT-PCR in DM2 fibroblasts
# Experimental: as §1
# as §2, with “RT-PCR products were observed after 35 cycles of 95° C. for 30 s, 58° C. for 30s, 72 °C for 1 min, and a final extension at 72° C. for 5 min. Products were separated on a 2% agarose gel (110 V for 1 h in 13TBE buffer), visualized by staining with ethidium bromide, and imaged using a Typhoon 9410 variable mode imager.” left out
# [5] = test system: CNBP intron 1 in DM2 patient-derived fibroblasts; assay: CNBP intron 1 abundance via RT-qPCR in DM2 fibroblasts; parameters: dose or concentration left out as unconfirmed
# Experimental: as §1
# (§3) Evaluation of CNBP abundance via RT-qPCR: CNBP abundance was evaluated as previously described.^10 Briefly, cells were grown in 6-well plates and treated with the desired compound in growth medium at 40% confluency. […] Approximately 1 μg of total RNA was reverse transcribed using a qScript cDNA synthesis kit (20 μL total reaction volume, Quanta BioSciences); 2 μL of the reverse transcription (RT) reaction was used for each primer pair (Table S1) for quantitative PCR with SYBR Green Master Mix, performed on a QuantStudio 5, 384-well Block Real-Time PCR System (Applied Biosciences). Relative abundance was determined by normalizing to GAPDH (n=6 replicates per concentration; 2 independent experiments).
# [6] = test system: CNBP mature mRNA in DM2 patient-derived fibroblasts; assay: CNBP mature mRNA levels via RT-qPCR in DM2 fibroblasts
# Experimental: as §1, §3
# [7] = test system: IR exon 11 inclusion in wild-type fibroblasts; assay: IR exon 11 inclusion via RT-PCR in wild-type fibroblasts
# Experimental: as §1
# as §2, with “RT-PCR products were observed after 35 cycles of 95° C. for 30 s, 58° C. for 30s, 72 °C for 1 min, and a final extension at 72° C. for 5 min. Products were separated on a 2% agarose gel (110 V for 1 h in 13TBE buffer), visualized by staining with ethidium bromide, and imaged using a Typhoon 9410 variable mode imager.” left out
smiles,measurement,setting,value
"Cc1ccc2nc(Nc3ccc4nc(C)sc4c3)nc(NCCCO)c2c1 [Compound 63, 3-((6-methyl-2-((2-methylbenzo[d]thiazol-6-yl)amino)quinazolin-4-yl)amino)propan-1-ol]",toxicity as stated in legend of FIG. 3C,[1]; DM2 fibroblasts,non-toxic
same,toxicity in DM2 patient-derived fibroblasts,[1]; at 5 μM,no toxicity
same,rescue of IR exon 11 splicing,[2]; at 1 μM,~30%
same,rescue of IR splicing,"[2]; at 1 μM dose, p=0.026",33±5
same,improvement of IR splicing,[2]; at 5 μM,significantly improved IR splicing
same,reduction of number of nuclear foci per cell,[3]; 63 vs untreated,~30%
same,number of r(CCUG)exp-MBNL1 nuclear foci per cell,[3]; untreated 7±1,5±0.5
same,effect on MAP4K4 exon 22a splicing,[4],did not affect; also recorded: does not affect
same,abundance of CNBP intron 1,[5],significantly reduced
same,levels of CNBP mature mRNA,[6],did not affect
same,effect on IR exon 11 inclusion,[7],did not affect; also recorded: no effect

# Source: US20240262817A1, “QUINAZOLINE DERIVATIVES TARGETING R(CCUG) REPEATS IN MYOTONIC DYSTROPHY TYPE 2” (University of Florida Research Foundation, Incorporated, priority 2021, published 2024)
